Results from ChEMBL document CHEMBL5465560, “Selectivity Literature for EUbOPEN Chemogenomic Library” (2024).
Values belong to the molecule of their own block, whether it stands above or below them.

Experiments:
[1] = molecular target: Mitogen-activated protein kinase 14 (Homo sapiens, UniProt Q16539); test: Selectivity interaction (Enyzmatic assay) EUB0000601a MAPK14
[2] = molecular target: Cyclin-dependent kinase-like 1 (Homo sapiens) (UniProt Q00532); test: Selectivity interaction (Ambit KINOMEscan and KiNATiv profiling in Jurkat cells) EUB0000090b CDKL1; format: cell-based; conditions: at 1 µM
[3] = molecular target: Tyrosine-protein kinase FRK (Homo sapiens) (UniProt P42685); test: Selectivity interaction (Ambit KINOMEscan and KiNATiv profiling in Jurkat cells) EUB0000090b FRK; format: cell-based; conditions: at 1 µM
[4] = molecular target: T1, Histone-lysine N-methyltransferase SUV39H1 (Homo sapiens) (UniProt O43463); conditions: at 10 µM
T1 sequence (whole entry): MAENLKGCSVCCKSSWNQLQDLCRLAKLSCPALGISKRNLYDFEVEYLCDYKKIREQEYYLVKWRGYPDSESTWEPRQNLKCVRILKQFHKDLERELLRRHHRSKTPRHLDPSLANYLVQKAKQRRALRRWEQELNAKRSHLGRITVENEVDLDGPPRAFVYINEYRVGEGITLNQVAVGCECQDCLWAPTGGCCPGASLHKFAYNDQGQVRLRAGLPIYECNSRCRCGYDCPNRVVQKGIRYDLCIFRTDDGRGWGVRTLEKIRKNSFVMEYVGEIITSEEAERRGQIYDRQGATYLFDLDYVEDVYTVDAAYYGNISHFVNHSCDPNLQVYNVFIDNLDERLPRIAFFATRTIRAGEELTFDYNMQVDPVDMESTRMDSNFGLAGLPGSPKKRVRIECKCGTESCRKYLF

[5] = molecular target: Dual specificity protein kinase CLK2 (Homo sapiens, UniProt P49760); test: Selectivity interaction (Enzymatic assay) EUB0001550a CLK2
[6] = molecular target: T2, Serine/threonine-protein kinase 3 (Homo sapiens) (UniProt Q13188); test: Selectivity interaction (Kinase panel (literature)) EUB0001199aCl STK3; conditions: at 1 µM
T2 sequence (whole entry): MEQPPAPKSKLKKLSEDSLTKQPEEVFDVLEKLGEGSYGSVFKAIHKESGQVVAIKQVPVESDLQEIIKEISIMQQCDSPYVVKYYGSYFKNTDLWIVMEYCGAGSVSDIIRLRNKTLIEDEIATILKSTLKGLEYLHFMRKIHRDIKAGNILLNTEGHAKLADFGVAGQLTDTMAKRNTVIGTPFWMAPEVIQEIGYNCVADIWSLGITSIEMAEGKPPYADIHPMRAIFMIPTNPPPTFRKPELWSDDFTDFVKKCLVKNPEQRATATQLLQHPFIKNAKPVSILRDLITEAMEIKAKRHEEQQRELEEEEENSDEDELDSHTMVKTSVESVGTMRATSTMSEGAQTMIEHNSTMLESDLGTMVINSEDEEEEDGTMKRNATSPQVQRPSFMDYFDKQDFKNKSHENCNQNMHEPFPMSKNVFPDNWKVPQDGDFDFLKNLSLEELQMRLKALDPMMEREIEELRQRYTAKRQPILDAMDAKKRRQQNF

[7] = molecular target: Vascular endothelial growth factor receptor 3 (Homo sapiens, UniProt P35916); test: Selectivity interaction (KinomeScan (DiscoverX)) EUB0000699a FLT4; conditions: at 10 µM
[8] = molecular target: T3, Dual specificity mitogen-activated protein kinase kinase 6 (Homo sapiens) (UniProt P52564); conditions: at 10 µM
T3 sequence (whole entry): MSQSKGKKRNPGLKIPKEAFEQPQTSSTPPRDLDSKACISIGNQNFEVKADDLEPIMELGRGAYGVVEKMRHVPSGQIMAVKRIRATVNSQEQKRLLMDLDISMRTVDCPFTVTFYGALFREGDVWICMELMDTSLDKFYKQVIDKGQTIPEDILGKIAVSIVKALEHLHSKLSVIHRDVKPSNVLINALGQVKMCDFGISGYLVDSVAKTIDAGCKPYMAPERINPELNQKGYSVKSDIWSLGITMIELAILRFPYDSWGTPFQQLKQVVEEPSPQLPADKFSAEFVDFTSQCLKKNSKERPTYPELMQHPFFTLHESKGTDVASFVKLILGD

[9] = molecular target: Serine/threonine-protein kinase SIK2 (Homo sapiens) (UniProt Q9H0K1); conditions: at 10 µM
[10] = molecular target: TRAF2 and NCK-interacting protein kinase (Homo sapiens) (UniProt Q9UKE5); test: Selectivity interaction (KinomeScan (DiscoverX)) EUB0000092b TNIK; conditions: at 10 µM
[11] = system: Receptor-type tyrosine-protein kinase FLT3 (Homo sapiens), P36888 [UNDEFINED MUTATION]; test: Selectivity interaction (KinomeScan (DiscoverX)) EUB0000311b FLT3; conditions: at 1 µM
[12] = molecular target: Casein kinase I isoform gamma-3 (Homo sapiens) (UniProt Q9Y6M4); test: Selectivity interaction (KinomeScan (DiscoverX)) EUB0001619a CSNK1G3; conditions: at 1 µM
[13] = molecular target: Tyrosine-protein kinase Fyn (Homo sapiens) (UniProt P06241); test: Selectivity interaction (KinomeScan (DiscoverX)) EUB0000618a FYN; conditions: at 10 µM

Vascular endothelial growth factor receptor 3, sequence (P35916 whole entry): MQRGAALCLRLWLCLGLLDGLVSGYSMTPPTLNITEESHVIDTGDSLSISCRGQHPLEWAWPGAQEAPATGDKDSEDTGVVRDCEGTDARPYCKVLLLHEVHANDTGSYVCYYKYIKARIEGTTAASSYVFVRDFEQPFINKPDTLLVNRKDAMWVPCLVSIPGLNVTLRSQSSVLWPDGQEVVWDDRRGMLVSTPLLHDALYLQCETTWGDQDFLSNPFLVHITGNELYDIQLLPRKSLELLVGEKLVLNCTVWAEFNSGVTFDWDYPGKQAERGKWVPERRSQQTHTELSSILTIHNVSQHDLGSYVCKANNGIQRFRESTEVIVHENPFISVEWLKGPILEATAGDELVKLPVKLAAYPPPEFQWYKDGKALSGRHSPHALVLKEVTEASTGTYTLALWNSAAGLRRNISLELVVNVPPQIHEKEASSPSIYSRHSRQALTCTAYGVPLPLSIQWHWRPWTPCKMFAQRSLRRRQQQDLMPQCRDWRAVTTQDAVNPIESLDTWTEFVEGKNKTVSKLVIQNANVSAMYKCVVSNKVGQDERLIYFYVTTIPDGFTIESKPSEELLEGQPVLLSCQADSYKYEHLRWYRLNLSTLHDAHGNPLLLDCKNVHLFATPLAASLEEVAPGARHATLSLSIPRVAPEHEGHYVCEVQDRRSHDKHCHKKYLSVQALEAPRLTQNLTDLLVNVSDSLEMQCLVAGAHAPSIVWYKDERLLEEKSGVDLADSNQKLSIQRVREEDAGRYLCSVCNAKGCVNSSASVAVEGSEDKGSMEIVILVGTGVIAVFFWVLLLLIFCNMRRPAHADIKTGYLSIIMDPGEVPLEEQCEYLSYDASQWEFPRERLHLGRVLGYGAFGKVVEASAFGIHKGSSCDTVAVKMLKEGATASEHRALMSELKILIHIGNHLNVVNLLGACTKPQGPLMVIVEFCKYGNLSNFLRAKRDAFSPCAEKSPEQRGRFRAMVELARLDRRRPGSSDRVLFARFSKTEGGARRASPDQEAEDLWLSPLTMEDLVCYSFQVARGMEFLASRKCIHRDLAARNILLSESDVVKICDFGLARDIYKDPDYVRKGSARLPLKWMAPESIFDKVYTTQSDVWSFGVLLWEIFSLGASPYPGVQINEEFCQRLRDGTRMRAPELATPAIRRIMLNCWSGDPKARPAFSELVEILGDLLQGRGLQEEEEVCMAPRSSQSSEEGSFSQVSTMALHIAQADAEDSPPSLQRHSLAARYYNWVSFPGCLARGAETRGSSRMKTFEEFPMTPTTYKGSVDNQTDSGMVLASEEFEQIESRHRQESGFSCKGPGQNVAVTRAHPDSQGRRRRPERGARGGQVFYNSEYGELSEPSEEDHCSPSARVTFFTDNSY
Tyrosine-protein kinase FRK (Homo sapiens), sequence (P42685 whole entry): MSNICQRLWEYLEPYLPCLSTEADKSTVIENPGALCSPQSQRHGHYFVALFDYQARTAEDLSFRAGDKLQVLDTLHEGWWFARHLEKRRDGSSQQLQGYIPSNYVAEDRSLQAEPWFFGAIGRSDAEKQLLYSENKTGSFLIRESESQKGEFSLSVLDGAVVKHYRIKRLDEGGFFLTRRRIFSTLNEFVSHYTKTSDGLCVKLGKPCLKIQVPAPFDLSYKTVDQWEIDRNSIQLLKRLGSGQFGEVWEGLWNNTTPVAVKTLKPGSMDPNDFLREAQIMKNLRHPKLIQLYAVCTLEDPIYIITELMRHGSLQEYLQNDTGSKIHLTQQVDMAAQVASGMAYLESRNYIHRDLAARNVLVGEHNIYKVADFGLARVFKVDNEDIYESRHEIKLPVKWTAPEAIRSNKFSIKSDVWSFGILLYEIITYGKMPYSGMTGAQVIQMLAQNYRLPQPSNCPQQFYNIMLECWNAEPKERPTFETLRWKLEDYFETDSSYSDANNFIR
TRAF2 and NCK-interacting protein kinase (Homo sapiens), sequence (Q9UKE5 whole entry, looked up): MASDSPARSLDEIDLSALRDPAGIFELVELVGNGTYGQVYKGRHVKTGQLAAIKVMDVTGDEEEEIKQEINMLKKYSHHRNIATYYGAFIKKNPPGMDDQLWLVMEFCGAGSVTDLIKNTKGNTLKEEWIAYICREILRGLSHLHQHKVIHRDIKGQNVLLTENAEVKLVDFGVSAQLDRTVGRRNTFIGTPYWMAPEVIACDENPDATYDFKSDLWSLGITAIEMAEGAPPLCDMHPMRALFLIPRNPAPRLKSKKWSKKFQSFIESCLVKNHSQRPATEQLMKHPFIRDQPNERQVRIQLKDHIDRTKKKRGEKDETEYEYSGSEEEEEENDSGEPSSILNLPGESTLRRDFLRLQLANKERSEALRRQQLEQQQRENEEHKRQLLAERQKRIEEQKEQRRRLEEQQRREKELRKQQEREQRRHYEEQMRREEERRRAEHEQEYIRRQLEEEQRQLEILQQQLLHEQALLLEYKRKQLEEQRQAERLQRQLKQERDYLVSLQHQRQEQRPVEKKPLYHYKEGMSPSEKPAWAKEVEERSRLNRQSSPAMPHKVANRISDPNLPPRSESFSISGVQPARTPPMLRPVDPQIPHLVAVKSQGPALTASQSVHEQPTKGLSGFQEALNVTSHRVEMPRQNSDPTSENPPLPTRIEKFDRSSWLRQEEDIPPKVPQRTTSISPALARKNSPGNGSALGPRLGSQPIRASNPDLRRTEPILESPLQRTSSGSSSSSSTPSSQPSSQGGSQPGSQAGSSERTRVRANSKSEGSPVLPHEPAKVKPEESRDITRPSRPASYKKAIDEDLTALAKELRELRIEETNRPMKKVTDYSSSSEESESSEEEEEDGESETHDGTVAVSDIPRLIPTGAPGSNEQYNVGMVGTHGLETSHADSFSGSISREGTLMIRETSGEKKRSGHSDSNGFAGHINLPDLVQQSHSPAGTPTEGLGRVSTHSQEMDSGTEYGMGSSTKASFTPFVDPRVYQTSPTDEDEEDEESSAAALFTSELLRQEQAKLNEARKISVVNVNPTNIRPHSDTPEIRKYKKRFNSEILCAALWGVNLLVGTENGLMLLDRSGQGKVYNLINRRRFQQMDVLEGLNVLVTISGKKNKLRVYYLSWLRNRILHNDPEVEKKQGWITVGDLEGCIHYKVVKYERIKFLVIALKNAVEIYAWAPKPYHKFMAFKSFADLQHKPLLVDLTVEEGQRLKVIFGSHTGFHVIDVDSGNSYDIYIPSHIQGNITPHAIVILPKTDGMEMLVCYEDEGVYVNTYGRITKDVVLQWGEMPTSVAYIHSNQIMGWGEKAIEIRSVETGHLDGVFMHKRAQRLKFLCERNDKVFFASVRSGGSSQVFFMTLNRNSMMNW
Receptor-type tyrosine-protein kinase FLT3 (Homo sapiens), P36888 [UNDEFINED MUTATION], sequence (P36888 whole entry, looked up, change not shown, canonical isoform): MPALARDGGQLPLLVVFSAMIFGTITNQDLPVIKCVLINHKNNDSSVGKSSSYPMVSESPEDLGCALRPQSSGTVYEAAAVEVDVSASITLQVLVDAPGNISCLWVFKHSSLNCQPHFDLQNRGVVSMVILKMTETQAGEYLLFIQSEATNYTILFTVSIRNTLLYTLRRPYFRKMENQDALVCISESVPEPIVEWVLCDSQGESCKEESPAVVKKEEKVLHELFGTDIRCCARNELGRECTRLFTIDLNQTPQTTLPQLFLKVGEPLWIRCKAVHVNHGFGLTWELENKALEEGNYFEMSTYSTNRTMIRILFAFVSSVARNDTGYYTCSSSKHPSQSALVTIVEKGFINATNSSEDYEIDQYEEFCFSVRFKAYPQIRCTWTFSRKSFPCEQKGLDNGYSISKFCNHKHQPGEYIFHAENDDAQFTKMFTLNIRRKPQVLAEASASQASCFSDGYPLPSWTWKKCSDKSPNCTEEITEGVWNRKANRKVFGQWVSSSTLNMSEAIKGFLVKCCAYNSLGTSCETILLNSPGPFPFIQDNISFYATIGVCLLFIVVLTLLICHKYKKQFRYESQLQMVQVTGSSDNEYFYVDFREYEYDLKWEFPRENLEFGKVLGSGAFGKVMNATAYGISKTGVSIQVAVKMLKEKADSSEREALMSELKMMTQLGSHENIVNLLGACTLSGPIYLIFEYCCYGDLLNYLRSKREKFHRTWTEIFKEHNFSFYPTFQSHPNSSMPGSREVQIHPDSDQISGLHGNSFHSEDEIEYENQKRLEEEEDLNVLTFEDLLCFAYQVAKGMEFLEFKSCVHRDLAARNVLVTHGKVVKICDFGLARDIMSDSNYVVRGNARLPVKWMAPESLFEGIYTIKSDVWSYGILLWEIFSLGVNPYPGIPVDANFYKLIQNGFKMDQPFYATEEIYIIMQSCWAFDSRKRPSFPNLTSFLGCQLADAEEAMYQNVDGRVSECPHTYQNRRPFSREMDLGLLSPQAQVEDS
Cyclin-dependent kinase-like 1 (Homo sapiens), sequence (Q00532 whole entry): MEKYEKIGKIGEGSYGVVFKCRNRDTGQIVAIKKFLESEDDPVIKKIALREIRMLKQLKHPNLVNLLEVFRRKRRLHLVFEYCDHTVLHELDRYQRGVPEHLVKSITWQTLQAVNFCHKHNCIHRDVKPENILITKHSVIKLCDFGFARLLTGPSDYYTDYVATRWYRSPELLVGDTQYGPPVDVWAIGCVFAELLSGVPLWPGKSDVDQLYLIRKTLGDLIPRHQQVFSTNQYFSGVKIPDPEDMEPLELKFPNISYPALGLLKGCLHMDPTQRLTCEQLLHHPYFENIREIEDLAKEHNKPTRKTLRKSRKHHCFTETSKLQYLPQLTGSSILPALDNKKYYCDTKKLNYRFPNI
Dual specificity protein kinase CLK2, sequence (P49760 whole entry): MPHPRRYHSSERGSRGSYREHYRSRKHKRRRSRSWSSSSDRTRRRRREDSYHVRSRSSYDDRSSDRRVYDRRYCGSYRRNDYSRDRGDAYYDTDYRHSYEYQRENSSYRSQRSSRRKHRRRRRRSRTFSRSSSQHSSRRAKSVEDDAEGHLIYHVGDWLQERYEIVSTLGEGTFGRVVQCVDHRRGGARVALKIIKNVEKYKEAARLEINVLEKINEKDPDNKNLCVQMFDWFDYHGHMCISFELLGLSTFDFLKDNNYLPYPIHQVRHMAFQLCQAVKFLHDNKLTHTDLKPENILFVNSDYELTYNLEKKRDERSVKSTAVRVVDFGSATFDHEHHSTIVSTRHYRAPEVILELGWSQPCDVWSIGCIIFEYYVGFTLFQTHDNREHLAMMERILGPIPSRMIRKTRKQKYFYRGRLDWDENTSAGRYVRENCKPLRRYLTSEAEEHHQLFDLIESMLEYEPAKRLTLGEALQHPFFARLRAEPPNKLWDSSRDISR

IC50 [1]: > 10 µM
SMILES: CCc1cc(Nc2nccc(-c3c(-c4ccc(OC)c(C(=O)Nc5c(F)cccc5F)c4)nc4ccccn34)n2)c(OC)cc1N1CCC(N2CCN(S(C)(=O)=O)CC2)CC1

SMILES: CN(C)C/C=C/C(=O)Nc1ccc(C(=O)N2CCCC(Nc3ncc(Cl)c(-c4c[nH]c5ccccc45)n3)C2)cc1 (stereo not drawn)
% of control [2]: 38%
% of control [3]: 89%

% activity [4]: > 90%
SMILES: CNCCN1CCC(c2cc(CN(C)C(=O)c3cccc(Oc4ccccc4)c3)ccn2)CC1

IC50 [5]: 0.29 µM
SMILES: CN(C)CC#Cc1ccc2[nH]c3c(c2c1)-c1nc(N)ncc1CCC3

% of inhibition [6]: -2%
SMILES: CN1Cc2nccc(-c3cn(C)nc3-c3ccc(F)cc3)c2C1=O

% of control [7]: 6%
% of control [8]: 100%
SMILES: CCN(CC)CCCCNc1ncc2cc(-c3cc(OC)cc(OC)c3)c(NC(=O)NC(C)(C)C)nc2n1

SMILES: COCC(=O)NC/C=C/c1ccc2ncnc(Nc3ccc(Oc4ccc(C)nc4)c(C)c3)c2c1 [CP-724714]
% of control [9]: 84%

SMILES: CCC(=O)N1CCN(c2ccc(-n3c(=O)ccc4cnc5ccc(-c6cnc7ccccc7c6)cc5c43)cc2C(F)(F)F)CC1
% of control [10]: 39%

% of control [11]: 11%
SMILES: CCc1ccccc1C(=O)Nc1n[nH]c2c(C)c(F)c(C3C(C#N)=C(C)N(C)C(C)=C3C#N)cc12 [BAY-3827]

SMILES: N#Cc1cccc(-c2c[nH]c3ncnc(N4CCOCC4)c23)c1
% of control [12]: 100%

SMILES: O[C@H]1CC[C@H](Nc2ncc3nc(Nc4c(F)cc(F)cc4F)n([C@H]4CCOC4)c3n2)CC1
% of control [13]: 100%
